In patent publication US20260347335A1, “PESTICIDALLY ACTIVE CYCLIC AMINE COMPOUNDS” (SYNGENTA CROP PROTECTION AG, priority 2022, published 2026):

These compounds were tested on Tetranychus urticae (Two-Spotted Spider Mite) (assay: Example B1: Tetranychus urticae (Two-Spotted Spider Mite): Feeding/Contact Activity). Details: foliar, 192 h, application rate of 200 ppm, 8 days after infestation, bean leaf discs on agar, mites of mixed ages, read-out: mortality on mixed population (mobile stages).
Assay type: in vivo
Method: Example B1: Tetranychus urticae (Two-Spotted Spider Mite): Feeding/Contact Activity
Bean leaf discs on agar in 24-well microtiter plates were sprayed with aqueous test solutions prepared from 10,000 ppm DMSO stock solutions. After drying the leaf discs were infested with a mite population of mixed ages. The samples were assessed for mortality on mixed population (mobile stages) 8 days after infestation.

Compound | mortality at 200 ppm [%]
CC(C)(NS(C)(=O)=O)C1CCN(C(=O)c2cc(C#N)c(OCc3ccc4c(c3)OC(F)(F)O4)nc2C(F)F)CC1 [Compound P1.1, N-[1-[1-[5-cyano-6-[(2,2-difluoro-1,3-benzodioxol-5-yl)methoxy]-2-(difluoromethyl)pyridine-3-carbonyl]-4-piperidyl]-1-methyl-ethyl]methanesulfonamide] | ≥ 80
CC(=O)NC1(C2CCN(C(=O)c3cc(C#N)c(OCc4cc(Cl)ccc4F)nc3C(F)F)CC2)CC1 [Compound P1.18, N-[1-[1-[6-[(5-chloro-2-fluoro-phenyl)methoxy]-5-cyano-2-(difluoromethyl)pyridine-3-carbonyl]-4-piperidyl]cyclopropyl]acetamide] | ≥ 80
CC(=O)NC1(C2CCN(C(=O)c3cc(C#N)c(OCc4ccc5c(c4)OC(F)(F)O5)nc3C(F)F)CC2)CC1 [Compound P1.6, N-[1-[1-[5-cyano-6-[(2,2-difluoro-1,3-benzodioxol-5-yl)methoxy]-2-(difluoromethyl)pyridine-3-carbonyl]-4-piperidyl]cyclopropyl]acetamide] | ≥ 80
